From the NIST ThermoML archive (doi:10.1021/je060271a)

Details: 283.16 K, Liquid, Vibrating tube method

CCCC(=O)OCC(COC(=O)CCC)(COC(=O)CCC)COC(=O)CCC [pentaerythritol tetrabutyrate]
Details	mass density [kg/m3]
19617 kPa	1070.2
19631 kPa	1070.3
19642 kPa	1070.3
19654 kPa	1070.3
19669 kPa	1070.3
19681 kPa	1070.2
19694 kPa	1070.3
19706 kPa	1070.4
19717 kPa	1070.3
19732 kPa	1070.3
19743 kPa	1070.3
19757 kPa	1070.3
19769 kPa	1070.3
19781 kPa	1070.4
19796 kPa	1070.4
19807 kPa	1070.3
19819 kPa	1070.4
19834 kPa	1070.4
19846 kPa	1070.3
19858 kPa	1070.5
19870 kPa	1070.5
19885 kPa	1070.4
19897 kPa	1070.4
19909 kPa	1070.4
19921 kPa	1070.3
19936 kPa	1070.4
19947 kPa	1070.4
19962 kPa	1070.5
19975 kPa	1070.6
19986 kPa	1070.5
20001 kPa	1070.5
20014 kPa	1070.5
20026 kPa	1070.3
20039 kPa	1070.6
20053 kPa	1070.5
20065 kPa	1070.5
20077 kPa	1070.5
20092 kPa	1070.5
20104 kPa	1070.5
20117 kPa	1070.6
20130 kPa	1070.5
20145 kPa	1070.6
20157 kPa	1070.7
20170 kPa	1070.5
20185 kPa	1070.6
20197 kPa	1070.6
20210 kPa	1070.6
20225 kPa	1070.6
20237 kPa	1070.6
20250 kPa	1070.6
20264 kPa	1070.7
20277 kPa	1070.6
20290 kPa	1070.8
20305 kPa	1070.6
20317 kPa	1070.6
20330 kPa	1070.7
20468 kPa	1070.7
20480 kPa	1070.8
20493 kPa	1070.6
20506 kPa	1070.8
20521 kPa	1070.7
20534 kPa	1070.8
20548 kPa	1070.8
20563 kPa	1070.8
20576 kPa	1070.8
20592 kPa	1070.8
20605 kPa	1070.8
20618 kPa	1070.8
20773 kPa	1070.9
20787 kPa	1070.9
20800 kPa	1070.9
20816 kPa	1070.9
20829 kPa	1071
20845 kPa	1071
20858 kPa	1070.8
20872 kPa	1071
20886 kPa	1071
20900 kPa	1071
20914 kPa	1070.9
20930 kPa	1071
21000 kPa	1071
21016 kPa	1071
21030 kPa	1071
21044 kPa	1071
21060 kPa	1071
21076 kPa	1071
21090 kPa	1071.1
21104 kPa	1071.1
21118 kPa	1071.1
21134 kPa	1071
21148 kPa	1071.1
21162 kPa	1071
21178 kPa	1071.1
21192 kPa	1071
21209 kPa	1071
21223 kPa	1071.1
21237 kPa	1071.1
21251 kPa	1071.1
21267 kPa	1071.1
21282 kPa	1071.2
21295 kPa	1071.3
21312 kPa	1071.2
21326 kPa	1071.2
21340 kPa	1071.1
21400 kPa	1071.2
21417 kPa	1071.2
21431 kPa	1071.2
21445 kPa	1071.3
21463 kPa	1071.3
21477 kPa	1071.2
21491 kPa	1071.2
21508 kPa	1071.2
21523 kPa	1071.4
21537 kPa	1071.2
21554 kPa	1071.4
21568 kPa	1071.3
21600 kPa	1071.4
21723 kPa	1071.4
21785 kPa	1071.4
21800 kPa	1071.4
21818 kPa	1071.5
22023 kPa	1071.5
22039 kPa	1071.6
22057 kPa	1071.6
22072 kPa	1071.6
22087 kPa	1071.6
22102 kPa	1071.6
22121 kPa	1071.5
22136 kPa	1071.6
22154 kPa	1071.6
22169 kPa	1071.6
22184 kPa	1071.6
22200 kPa	1071.7
22219 kPa	1071.6
22234 kPa	1071.6
22250 kPa	1071.7
22266 kPa	1071.6
22284 kPa	1071.6
22300 kPa	1071.7
22316 kPa	1071.7
22331 kPa	1071.7
22790 kPa	1071.9
22826 kPa	1071.9
22842 kPa	1072
22861 kPa	1072.1
22877 kPa	1072
